This passage reports melting point results from patent publication US8063048B2, “Acetylenyl-pyrazolo-pyrimidine derivatives” (Hoffmann-La Roche Inc., priority 2005, dated 2011).

Molecules are shown by their SMILES.

The compound `Nc1ncc(C#Cc2cnc3c(F)cc(-c4ccc(C(F)(F)F)cc4)cn23)cn1` [Example 240, 5-[8-Fluoro-6-(4-trifluoromethyl-phenyl)-imidazo[1,2-a]pyridin-3-ylethynyl]-pyrimidin-2-ylamine] showed a melting point of 286 °C.
Under `CC(C)(C)NS(=O)(=O)c1ccc(C#Cc2cnn3c(C(F)F)cc(-c4ccc(C(F)(F)F)cc4)nc23)s1` [Example 165, 5-[7-Difluoromethyl-5-(4-trifluoromethyl-phenyl)-pyrazolo[1,5-a]pyrimidin-3-ylethynyl]-thiophene-2-sulfonic acid tert-butylamide] stands 187 °C.
Under `Cc1cc(-c2cc(C(F)F)n3ncc(C#Cc4ccc(S(=O)(=O)NCCN(C)C)s4)c3n2)ccc1Cl` [Example 256, 5-[5-(4-Chloro-3-methyl-phenyl)-7-difluoromethyl-pyrazolo[1,5-a]pyrimidin-3-ylethynyl]-thiophene-2-sulfonic acid (2-dimethylamino-ethyl)-amide] stands 149 °C; under `Nc1ncc(C#Cc2cnc3ccc(-c4ccc(C(F)(F)F)cc4)cn23)cn1` [Example 238, 5-[6-(4-Trifluoromethyl-phenyl)-imidazo[1,2-a]pyridin-3-ylethynyl]-pyrimidin-2-ylamine], 244 to 246 °C; under `Nc1ccc(C#Cc2cnn3c(C(F)F)cc(-c4ccc(C(F)(F)F)cc4)nc23)cn1` [Example 188, 5-[7-Difluoromethyl-5-(4-trifluoromethyl-phenyl)-pyrazolo[1,5-a]pyrimidin-3-ylethynyl]-pyridin-2-ylamine], 216 °C.
Under `CNS(=O)(=O)c1cccc(C#Cc2cnn3c(C(F)(F)F)cc(-c4ccc(C(F)(F)F)cc4)nc23)c1` [Example 130, N-Methyl-3-[7-trifluoromethyl-5-(4-trifluoromethyl-phenyl)-pyrazolo[1,5-a]pyrimidin-3-ylethynyl]-benzenesulfonamide] stands 213 to 214 °C.
`Nc1ccc(C#Cc2cnn3ccc(-c4ccc(C(F)(F)F)cc4)nc23)cn1` [Example 310, 5-[5-(4-Trifluoromethyl-phenyl)-pyrazolo[1,5-a]pyrimidin-3-ylethynyl]-pyridin-2-ylamine]: the melting point fell in the range of 213 to 214 °C.
As for `COc1ccc(C#Cc2cnn3c(C4CC4)cc(-c4ccc(Cl)cc4)nc23)cc1S(=O)(=O)NC(C)(C)CO` [Example 69, 5-[5-(4-Chloro-phenyl)-7-cyclopropyl-pyrazolo[1,5-a]pyrimidin-3-ylethynyl]-N-(2-hydroxy-1,1-dimethyl-ethyl)-2-methoxy-benzenesulfonamide], the figure is 253 to 256 °C.
Under `NS(=O)(=O)c1ccc(C#Cc2cnc3c(C(F)(F)F)cc(-c4ccc(C(F)(F)F)cc4)cn23)s1` [Example 193, 5-[8-Trifluoromethyl-6-(4-trifluoromethyl-phenyl)-imidazo[1,2-a]pyridin-3-ylethynyl]-thiophene-2-sulfonic acid amide] stands 248 to 250 °C.
As for `CC(C)(CO)NS(=O)(=O)c1ccc(C#Cc2cnn3c(C(F)(F)F)cc(-c4ccc(C(F)(F)F)cc4)nc23)s1` [Example 120, 5-[7-Trifluoromethyl-5-(4-trifluoromethyl-phenyl)-pyrazolo[1,5-a]pyrimidin-3-ylethynyl]-thiophene-2-sulfonic acid (2-hydroxy-1,1-dimethyl-ethyl)-amide], the figure is 272 °C; as for `O=S(=O)(c1ccc(C#Cc2cnn3c(C(F)(F)F)cc(-c4cccc(C(F)(F)F)c4)nc23)s1)N(CCO)CCO` [Example 266, 5-[7-Trifluoromethyl-5-(3-trifluoromethyl-phenyl)-pyrazolo[1,5-a]pyrimidin-3-ylethynyl]-thiophene-2-sulfonic acid bis-(2-hydroxy-ethyl)-amide], 129 °C.
In turn, `NC(=O)c1ccc(C#Cc2cnn3c(C(F)(F)F)cc(-c4ccc(C(F)(F)F)cc4)nc23)cc1` [Example 197, 4-[7-Trifluoromethyl-5-(4-trifluoromethyl-phenyl)-pyrazolo[1,5-a]pyrimidin-3-ylethynyl]-benzamide] returned a melting point of 260 °C.
`CCOc1cc(-c2cc(C(F)(F)F)n3ncc(C#Cc4ncc(S(=O)(=O)NC(C)(C)CO)s4)c3n2)ccc1C(F)(F)F` [Example 51, 2-[5-(3-Ethoxy-4-trifluoromethyl-phenyl)-7-trifluoromethyl-pyrazolo[1,5-a]pyrimidin-3-ylethynyl]-thiazole-5-sulfonic acid (2-hydroxy-1,1-dimethyl-ethyl)-amide] showed a melting point of 209 to 211 °C.
Turning to `O=S(=O)(Nc1ccncc1)c1ccc(C#Cc2cnn3c(C(F)(F)F)cc(-c4ccc(C(F)(F)F)cc4)nc23)s1` [Example 280, 5-[7-Trifluoromethyl-5-(4-trifluoromethyl-phenyl)-pyrazolo[1,5-a]pyrimidin-3-ylethynyl]-thiophene-2-sulfonic acid pyridin-4-ylamide], the melting point turned out to be 209 °C.
Under `CNc1ccc(C#Cc2cnn3c(C(F)(F)F)cc(-c4ccc(C(F)(F)F)cc4)nc23)cn1` [Example 199, Methyl-{5-[7-trifluoromethyl-5-(4-trifluoromethyl-phenyl)-pyrazolo[1,5-a]pyrimidin-3-ylethynyl]-pyridin-2-yl}-amine] stands 187 °C; under `Cc1cc(-c2cc(C(F)(F)F)n3ncc(C#Cc4ncc(S(N)(=O)=O)s4)c3n2)ccc1Cl` [Example 104, 2-[5-(4-Chloro-3-methyl-phenyl)-7-trifluoromethyl-pyrazolo[1,5-a]pyrimidin-3-ylethynyl]-thiazole-5-sulfonic acid amide], 123 °C.
As for `CC(CO)(CO)NS(=O)(=O)c1cncc(C#Cc2cnn3c(C4CC4)cc(-c4ccc(Cl)cc4)nc23)c1` [Example 68, 5-[5-(4-Chloro-phenyl)-7-cyclopropyl-pyrazolo[1,5-a]pyrimidin-3-ylethynyl]-pyridine-3-sulfonic acid (2-hydroxy-1-hydroxymethyl-1-methyl-ethyl)-amide], the melting point lay within 204 to 206 °C.
Take `CC(=O)Nc1ncc(C#Cc2cnn3c(C(F)(F)F)cc(-c4ccc(C(F)(F)F)cc4)nc23)cn1` [Example 245, N-{5-[7-Trifluoromethyl-5-(4-trifluoromethyl-phenyl)-pyrazolo[1,5-a]pyrimidin-3-ylethynyl]-pyrimidin-2-yl}-acetamide]: the melting point turned out to be 293 °C.
The compound `CC(C)(C)NS(=O)(=O)c1cccc(C#Cc2cnn3c(C(F)(F)F)cc(-c4ccc(C(F)(F)F)cc4)nc23)c1` [Example 24, N-tert-Butyl-3-[7-trifluoromethyl-5-(4-trifluoromethyl-phenyl)-pyrazolo[1,5-a]pyrimidin-3-ylethynyl]-benzenesulfonamide] showed a melting point of 192 to 200 °C.
Take `CN(C)CCNS(=O)(=O)c1ccc(C#Cc2cnn3c(C(F)(F)F)cc(-c4ccc(C(F)(F)F)cc4)nc23)cc1` [Example 126, N-(2-Dimethylamino-ethyl)-4-[7-trifluoromethyl-5-(4-trifluoromethyl-phenyl)-pyrazolo[1,5-a]pyrimidin-3-ylethynyl]-benzenesulfonamide]: the melting point was 193 to 194 °C.
In turn, `Cc1ccc(C#Cc2cnn3c(C(F)F)cc(-c4ccc(C(F)(F)F)cc4)nc23)cc1S(=O)(=O)NCCO` [Example 61, 5-[7-Difluoromethyl-5-(4-trifluoromethyl-phenyl)-pyrazolo[1,5-a]pyrimidin-3-ylethynyl]-N-(2-hydroxy-ethyl)-2-methyl-benzenesulfonamide] returned a melting point of 184 to 186 °C.
Under `FC(F)(F)c1ccc(-c2cc(C(F)(F)F)n3ncc(C#Cc4ccnc(Cl)n4)c3n2)cc1` [Example 183, 3-(2-Chloro-pyrimidin-4-ylethynyl)-7-trifluoromethyl-5-(4-trifluoromethyl-phenyl)-pyrazolo[1,5-a]pyrimidine] stands 192 to 195 °C; under `CN(C)CCNS(=O)(=O)c1cc(C#Cc2cnn3c(C(F)F)cc(-c4ccc(C(F)(F)F)cc4)nc23)c(F)cc1F` [Example 134, 5-[7-Difluoromethyl-5-(4-trifluoromethyl-phenyl)-pyrazolo[1,5-a]pyrimidin-3-ylethynyl]-N-(2-dimethylamino-ethyl)-2,4-difluoro-benzenesulfonamide], 165 to 166 °C; under `CC(CO)(CO)NS(=O)(=O)c1cncc(C#Cc2cnn3c(C(F)(F)F)cc(-c4ccc(C(F)(F)F)cc4)nc23)c1` [Example 14, 5-[7-Trifluoromethyl-5-(4-trifluoromethyl-phenyl)-pyrazolo[1,5-a]pyrimidin-3-ylethynyl]-pyridine-3-sulfonic acid (2-hydroxy-1-hydroxymethyl-1-methyl-ethyl)-amide], 228 to 231 °C.
In turn, `COc1ccc(C#Cc2cnn3ccc(-c4ccc(Cl)cc4)nc23)cc1S(=O)(=O)NC(C)(C)CO` [Example 75, 5-[5-(4-Chloro-phenyl)-pyrazolo[1,5-a]pyrimidin-3-ylethynyl]-N-(2-hydroxy-1,1-dimethyl-ethyl)-2-methoxy-benzenesulfonamide] returned a melting point of 264 to 266 °C.
As for `Cc1cc(-c2ccc(C(F)(F)F)cc2)nc2c(C#Cc3ccc(S(N)(=O)=O)cc3)cnn12` [Example 150, 4-[7-Methyl-5-(4-trifluoromethyl-phenyl)-pyrazolo[1,5-a]pyrimidin-3-ylethynyl]-benzenesulfonamide], the figure is 282 to 284 °C; as for `Nc1ccc(C#Cc2cnn3c(C(F)(F)F)cc(-c4ccc(Cl)cc4)nc23)nn1` [Example 247, 6-[5-(4-Chloro-phenyl)-7-trifluoromethyl-pyrazolo[1,5-a]pyrimidin-3-ylethynyl]-pyridazin-3-ylamine], 247 to 248 °C; as for `CCc1cc(-c2ccc(Cl)cc2)nc2c(C#Cc3ccc(N)nc3)cnn12` [Example 304, 5-[5-(4-Chloro-phenyl)-7-ethyl-pyrazolo[1,5-a]pyrimidin-3-ylethynyl]-pyridin-2-ylamine], 205 to 206 °C.
`Nc1ncc(C#Cc2cnn3c(C(F)(F)F)cc(-c4ccc(Cl)cc4)nc23)cn1` [Example 317, 5-[5-(4-Chloro-phenyl)-7-trifluoromethyl-pyrazolo[1,5-a]pyrimidin-3-ylethynyl]-pyrimidin-2-ylamine] registered a melting point of 303 to 305 °C.

As a reminder, the melting point is the temperature, or range, at which the solid turns liquid.
